How the values were obtained:
Format in all cases: in vivo
[1] = system: Bemisia tabaci; assay: Bemisia tabaci (Cotton White Fly): Feeding/Contact Activity; details: foliar, 144 h, application rate of 200 ppm, sprayed cotton leaf discs, adult white flies, 6 days after incubation
Method: Cotton leaf discs were placed on agar in 24-well microtiter plates and sprayed with aqueous test solutions prepared from 10,000 ppm DMSO stock solutions. After drying the leaf discs were infested with adult white flies. The samples were checked for mortality 6 days after incubation.

[2] = system: Diabrotica balteata; assay: Diabrotica balteata (Corn Root Worm); details: 96 h, application rate of 200 ppm, sprayed maize sprouts, L2 larvae, 4 days after infestation, read-out: effect in at least one of the two categories (mortality or growth inhibition)
Method: Maize sprouts placed onto an agar layer in 24-well microtiter plates were treated with aqueous test solutions prepared from 10,000 ppm DMSO stock solutions by spraying. After drying, the plates were infested with L2 larvae (6 to 10 per well). The samples were assessed for mortality and growth inhibition in comparison to untreated samples 4 days after infestation.

[3] = system: Euschistus heros; assay: Euschistus heros (Neotropical Brown Stink Bug); details: 120 h, application rate of 200 ppm, sprayed soybean leaves, N2 nymphs, 5 days after infestation, read-out: effect in at least one of the two categories (mortality or growth inhibition)
Method: Soybean leaves on agar in 24-well microtiter plates were sprayed with aqueous test solutions prepared from 10,000 ppm DMSO stock solutions. After drying the leaves were infested with N2 nymphs. The samples were assessed for mortality and growth inhibition in comparison to untreated samples 5 days after infestation.

[4] = system: Frankliniella occidentalis; assay: Frankliniella occidentalis (Western Flower Thrips): Feeding/Contact Activity; details: foliar, 168 h, application rate of 200 ppm, sprayed sunflower leaf discs, population of mixed ages, 7 days after infestation
Method: Sunflower leaf discs were placed on agar in 24-well microtiter plates and sprayed with aqueous test solutions prepared from 10,000 DMSO stock solutions. After drying the leaf discs were infested with a Frankliniella population of mixed ages. The samples were assessed for mortality 7 days after infestation.

[5] = system: Myzus persicae; assay: Myzus persicae (Green Peach Aphid): Feeding/Contact Activity; details: foliar, 144 h, application rate of 200 ppm, sprayed sunflower leaf discs, aphid population of mixed ages, 6 days after infestation
Method: Sunflower leaf discs were placed onto agar in a 24-well microtiter plate and sprayed with aqueous test solutions prepared from 10,000 ppm DMSO stock solutions. After drying, the leaf discs were infested with an aphid population of mixed ages. The samples were assessed for mortality 6 days after infestation.

[6] = system: Myzus persicae; assay: Myzus persicae (Green Peach Aphid). Systemic Activity; details: 144 h, test rate of 24 ppm, roots of infested pea seedlings in test solution, 6 days
Method: Roots of pea seedlings infested with an aphid population of mixed ages were placed directly into aqueous test solutions prepared from 10,000 DMSO stock solutions. The samples were assessed for mortality 6 days after placing seedlings into test solutions.

[7] = system: Plutella xylostella; assay: Plutella xylostella (Diamond Back Moth); details: 120 h, application rate of 200 ppm, artificial diet, L2 larvae, 5 days after infestation, read-out: effect in at least one of the two categories (mortality or growth inhibition)
Method: 24-well microtiter plates with artificial diet were treated with aqueous test solutions prepared from 10,000 ppm DMSO stock solutions by pipetting. After drying, the plates were infested with L2 larvae (10 to 15 per well). The samples were assessed for mortality and growth inhibition in comparison to untreated samples 5 days after infestation.

[8] = system: Spodoptera littoralis; assay: Spodoptera littoralis (Egyptian Cotton Leaf Worm), sprayed cotton leaf discs; details: foliar, 72 h, application rate of 200 ppm, L1 larvae, 3 days after infestation
Procedure, shortened: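 Cotton leaf discs on agar sprayed with aqueous dilutions of 10,000 ppm DMSO stocks, dried, then infested with five L1 larvae. Mortality, anti-feeding and growth inhibition scored against untreated discs 3 days after infestation. Control recorded when any one category exceeds the untreated sample.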

[9] = system: Spodoptera littoralis; assay: Spodoptera littoralis (Egyptian Cotton Leaf Worm), uptake by lettuce roots from agar; details: 144 h, test rate of 12.5 ppm, mixed with agar, absorbed by lettuce roots, Spodoptera eggs, 6 days after infestation, read-out: effect in at least one of the three categories (mortality, anti-feeding, or growth inhibition)
Text: Test compounds were applied by pipette from 10,000 ppm DMSO stock solutions into 24-well plates and mixed with agar. Lettuce seeds were placed onto the agar and the multi well plate was closed by another plate which contained also agar. After 7 days the compound was absorbed by the roots and the lettuce grew into the lid plate. The lettuce leaves were then cut off into the lid plate. Spodoptera eggs were pipetted through a plastic stencil onto a humid gel blotting paper and the lid plate was closed with it. The samples were assessed for mortality, anti-feedant effect and growth inhibition in comparison to untreated samples 6 days after infestation.

[10] = system: Tetranychus urticae; assay: Tetranychus urticae (Two-Spotted Spider Mite): Feeding/Contact Activity; details: foliar, 192 h, application rate of 200 ppm, sprayed bean leaf discs, mixed population (mobile stages), 8 days after infestation
Method: Bean leaf discs on agar in 24-well microtiter plates were sprayed with aqueous test solutions prepared from 10,000 ppm DMSO stock solutions. After drying the leaf discs were infested with a mite population of mixed ages. The samples were assessed for mortality on mixed population (mobile stages) 8 days after infestation.

[11] = system: Aedes aegypti; assay: Aedes Aegypti (Yellow Fever Mosquito); details: 200 ppm in ethanol, dry deposit in 12 well plates, adult females, after 48 h and/or 24 h
Method: Test solutions, at an application rate of 200 ppm in ethanol, were applied to 12 well tissue culture plates. Once the deposits were dry, five, two to five day old adult female Aedes aegypti were added to each well, and sustained with a 10% sucrose solution in a cotton wool plug. Assessment of knockdown was made one hour after introduction, and mortality was assessed at 24 and 48 hours after introduction.

CCn1c(C(F)(F)F)cc2nc(-c3nc(N(C)C(=O)C4CC4)ccc3S(=O)(=O)CC)n(C)c2c1=O [Compound A10, N-[6-[5-ethyl-3-methyl-4-oxo-6-(trifluoromethyl)imidazo[4,5-c]pyridin-2-yl]-5-ethylsulfonyl-2-pyridyl]-N-methyl-cyclopropanecarboxamide]
≥ 80%: mortality at 200 ppm [1] | effect mortality or growth inhibition at 200 ppm [2] | percent effect (mortality or growth inhibition) at 200 ppm [3] | mortality at 200 ppm [4] | mortality at 200 ppm [5] | mortality at 24 ppm [6] | percent effect (mortality or growth inhibition) at 200 ppm [7] | percent control (mortality, anti-feeding effect or growth inhibition) at 200 ppm [8] | percent effect (mortality, anti-feeding or growth inhibition) at 12.5 ppm [9]

CCn1c(C(F)(F)F)cc2nc(-c3nc(NC(=O)C4CC4)ccc3S(=O)(=O)CC)n(C)c2c1=O [Compound A8, N-[6-[5-ethyl-3-methyl-4-oxo-6-(trifluoromethyl)imidazo[4,5-c]pyridin-2-yl]-5-ethylsulfonyl-2-pyridyl]cyclopropanecarboxamide]
≥ 80%: mortality at 200 ppm [1] | effect mortality or growth inhibition at 200 ppm [2] | percent effect (mortality or growth inhibition) at 200 ppm [3] | mortality at 200 ppm [4] | mortality at 200 ppm [5] | percent effect (mortality or growth inhibition) at 200 ppm [7] | percent control (mortality, anti-feeding effect or growth inhibition) at 200 ppm [8] | percent effect (mortality, anti-feeding or growth inhibition) at 12.5 ppm [9]

CCS(=O)(=O)c1ccc(NC2CC2)nc1-c1nc2cc(C(F)(F)F)n(C)c(=O)c2n1C [Compound A2, 2-[6-(cyclopropylamino)-3-ethylsulfonyl-2-pyridyl]-3,5-dimethyl-6-(trifluoromethyl)imidazo[4,5-c]pyridin-4-one]
≥ 80%: effect mortality or growth inhibition at 200 ppm [2] | percent effect (mortality or growth inhibition) at 200 ppm [3] | mortality at 200 ppm [5] | mortality at 24 ppm [6] | percent effect (mortality or growth inhibition) at 200 ppm [7] | percent control (mortality, anti-feeding effect or growth inhibition) at 200 ppm [8] | percent effect (mortality, anti-feeding or growth inhibition) at 12.5 ppm [9] | mortality at 200 ppm [10] | pest or weed control at 200 ppm [11]

CCn1c(C(F)(F)F)cc2nc(-c3nc(NC4CC4)ccc3S(=O)(=O)CC)n(C)c2c1=O [Compound A30, 2-[6-(cyclopropylamino)-3-ethylsulfonyl-2-pyridyl]-5-ethyl-3-methyl-6-(trifluoromethyl)imidazo[4,5-c]pyridin-4-one]
≥ 80%: mortality at 200 ppm [1] | effect mortality or growth inhibition at 200 ppm [2] | percent effect (mortality or growth inhibition) at 200 ppm [3] | mortality at 200 ppm [5] | mortality at 24 ppm [6] | percent effect (mortality or growth inhibition) at 200 ppm [7] | percent control (mortality, anti-feeding effect or growth inhibition) at 200 ppm [8] | mortality at 200 ppm [10] | pest or weed control at 200 ppm [11]

CCS(=O)(=O)c1cc(C#N)c(N)nc1-c1nc2cc(C(F)(F)F)n(C3CC3)c(=O)c2n1C [Compound A50, 2-(6-amino-5-cyano-3-ethylsulfonyl-2-pyridyl)-5-cyclopropyl-3-methyl-6-(trifluoromethyl)imidazo[4,5-c]pyridin-4-one]
≥ 80%: effect mortality or growth inhibition at 200 ppm [2] | percent effect (mortality or growth inhibition) at 200 ppm [3] | mortality at 200 ppm [4] | mortality at 200 ppm [5] | mortality at 24 ppm [6] | percent effect (mortality or growth inhibition) at 200 ppm [7] | percent control (mortality, anti-feeding effect or growth inhibition) at 200 ppm [8] | percent effect (mortality, anti-feeding or growth inhibition) at 12.5 ppm [9]

CCn1c(C(F)(F)F)cc2nc(-c3nc(N)c(Cl)cc3S(=O)(=O)CC)n(C)c2c1=O [Compound A38, 2-(6-amino-5-chloro-3-ethylsulfonyl-2-pyridyl)-5-ethyl-3-methyl-6-(trifluoromethyl)imidazo[4,5-c]pyridin-4-one]
≥ 80%: mortality at 200 ppm [1] | effect mortality or growth inhibition at 200 ppm [2] | percent effect (mortality or growth inhibition) at 200 ppm [3] | mortality at 200 ppm [5] | percent effect (mortality or growth inhibition) at 200 ppm [7] | percent control (mortality, anti-feeding effect or growth inhibition) at 200 ppm [8] | percent effect (mortality, anti-feeding or growth inhibition) at 12.5 ppm [9] | pest or weed control at 200 ppm [11]

CCS(=O)(=O)c1cc(C2CC2)c(N)nc1-c1nc2cc(C(F)(F)F)n(C3CC3)c(=O)c2n1C [Compound A48, 2-(6-amino-5-cyclopropyl-3-ethylsulfonyl-2-pyridyl)-5-cyclopropyl-3-methyl-6-(trifluoromethyl)imidazo[4,5-c]pyridin-4-one]
≥ 80%: mortality at 200 ppm [1] | effect mortality or growth inhibition at 200 ppm [2] | percent effect (mortality or growth inhibition) at 200 ppm [3] | mortality at 200 ppm [4] | mortality at 200 ppm [5] | mortality at 24 ppm [6] | percent effect (mortality or growth inhibition) at 200 ppm [7] | percent control (mortality, anti-feeding effect or growth inhibition) at 200 ppm [8] | mortality at 200 ppm [10]

CCn1c(C(F)(F)F)cc2nc(-c3ncc(N(C)C4CC4)cc3S(=O)(=O)CC)n(C)c2c1=O [Compound A11, 2-[5-[cyclopropyl(methyl)amino]-3-ethylsulfonyl-2-pyridyl]-5-ethyl-3-methyl-6-(trifluoromethyl)imidazo[4,5-c]pyridin-4-one]
≥ 80%: effect mortality or growth inhibition at 200 ppm [2] | percent effect (mortality or growth inhibition) at 200 ppm [3] | mortality at 200 ppm [4] | mortality at 200 ppm [5] | percent effect (mortality or growth inhibition) at 200 ppm [7] | percent control (mortality, anti-feeding effect or growth inhibition) at 200 ppm [8] | percent effect (mortality, anti-feeding or growth inhibition) at 12.5 ppm [9] | pest or weed control at 200 ppm [11]

CCS(=O)(=O)c1cc(Cl)c(N)nc1-c1nc2cc(C(F)(F)F)n(C3CC3)c(=O)c2n1C [Compound A43, 2-(6-amino-5-chloro-3-ethylsulfonyl-2-pyridyl)-5-cyclopropyl-3-methyl-6-(trifluoromethyl)imidazo[4,5-c]pyridin-4-one]
≥ 80%: mortality at 200 ppm [1] | effect mortality or growth inhibition at 200 ppm [2] | percent effect (mortality or growth inhibition) at 200 ppm [3] | mortality at 200 ppm [4] | mortality at 200 ppm [5] | mortality at 24 ppm [6] | percent effect (mortality or growth inhibition) at 200 ppm [7] | percent control (mortality, anti-feeding effect or growth inhibition) at 200 ppm [8] | percent effect (mortality, anti-feeding or growth inhibition) at 12.5 ppm [9]

CCn1c(C(F)(F)F)cc2nc(-c3nc(N)ccc3S(=O)(=O)CC)n(C)c2c1=O [Compound A6, 2-(6-amino-3-ethylsulfonyl-2-pyridyl)-5-ethyl-3-methyl-6-(trifluoromethyl)imidazo[4,5-c]pyridin-4-one]
≥ 80%: mortality at 200 ppm [1] | effect mortality or growth inhibition at 200 ppm [2] | percent effect (mortality or growth inhibition) at 200 ppm [3] | mortality at 200 ppm [5] | mortality at 24 ppm [6] | percent effect (mortality or growth inhibition) at 200 ppm [7] | percent control (mortality, anti-feeding effect or growth inhibition) at 200 ppm [8] | percent effect (mortality, anti-feeding or growth inhibition) at 12.5 ppm [9] | pest or weed control at 200 ppm [11]
